Reference: PubChem BioAssay (NCI)
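Growth conditions: 96-well plates. Treatment: test compound, 48 hours, 5 concentrations. Analysis: linear interpolation between bracketing concentrations; unreached endpoints set to highest concentration. GI50: concentration for 50% inhibition of growth. TGI marks complete inhibition of growth.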

Key:
Assay in all cases: NCI anticancer screen, dose series, 48 h
SN12C renal = tested on: SN12C renal
SNB-19 CNS = tested on: SNB-19 CNS
CCRF-CEM leukemia = tested on: CCRF-CEM leukemia
UACC-257 melanoma = tested on: UACC-257 melanoma
HL-60(TB) leukemia = tested on: HL-60(TB) leukemia
SF-268 CNS = tested on: SF-268 CNS
OVCAR-4 ovarian = tested on: OVCAR-4 ovarian
KM12 colon = tested on: KM12 colon
IGROV1 ovarian = tested on: IGROV1 ovarian
UACC-62 melanoma = tested on: UACC-62 melanoma

| SMILES | GI50 (SN12C renal) [µM] | TGI (SN12C renal) [µM] | GI50 (SNB-19 CNS) [µM] | TGI (SNB-19 CNS) [µM] | GI50 (CCRF-CEM leukemia) [nM] | TGI (CCRF-CEM leukemia) [µM] | GI50 (UACC-257 melanoma) [µM] | TGI (UACC-257 melanoma) [µM] | GI50 (HL-60(TB) leukemia) [nM] | GI50 (SF-268 CNS) [µM] | TGI (SF-268 CNS) [µM] | GI50 (OVCAR-4 ovarian) [nM] | TGI (OVCAR-4 ovarian) [µM] | GI50 (KM12 colon) [µM] | TGI (KM12 colon) [µM] | GI50 (IGROV1 ovarian) [nM] | TGI (IGROV1 ovarian) [µM] | GI50 (UACC-62 melanoma) [µM] | TGI (UACC-62 melanoma) [µM] | TGI (HL-60(TB) leukemia) [µM] |
| --- | --- | --- | --- | --- | --- | --- | --- | --- | --- | --- | --- | --- | --- | --- | --- | --- | --- | --- | --- | --- |
| COc1cc([C@@H]2c3cc4c(cc3C(Br)[C@H]3COC(=O)[C@H]23)OCO4)cc(OC)c1OC (some centres undefined) | 0.549 | > 100 | 0.553 | > 100 | 363 | > 100 | 0.214 | > 100 | 223 | 0.399 | > 100 | 541 | > 100 | 0.0909 | 0.438 | 291 | > 65.9 | 0.187 | > 100 |  |
| CCCCCCOc1ccc(/C=N/NC(N)=S)cc1 | 2.16 | 9.9 | 12.3 | > 100 | 605 | 7.69 | 3.5 | 27.8 | 1150 | 3.31 | 41.8 | 3120 | 35 | 3.09 | 13.6 | 922 | 5.36 | 2.58 | 10.3 | 17.7 |
| N#Cc1cccc(C(=O)c2cnn(-c3ccc(F)cc3)c2N)c1 | > 25 | > 25 | > 25 | > 25 | > 25000 | > 25 | > 25 | > 25 | > 25000 | > 25 | > 25 | > 25000 | > 25 | > 25 | > 25 | > 25000 | > 25 | > 25 | > 25 | > 25 |
| COc1ccc(C(O)c2cc3c(N)c(C(=O)Nc4cccc(Cl)c4C)sc3nc2C)cc1 (centres undefined) | 0.815 | 1.61 | 0.943 | 1.92 | 733 | 1.93 | 1 | 2.02 | 877 | 0.808 | 1.68 | 782 | 2 | 0.865 | 1.68 | 687 | 1.44 | 0.896 | 1.67 | 2.14 |
| Cc1cc(=O)c2cc(N=Cc3ccc([N+](=O)[O-])o3)ccc2o1 |  | > 100 |  | > 100 |  | > 100 |  | > 100 |  |  | > 100 |  | > 100 |  | > 100 |  | > 100 |  | > 100 | > 100 |
| CCON=C1C(C)(C)C(C)(C)C(C)(C)C1(C)C |  | > 100 |  | > 100 |  | > 100 |  | > 100 |  |  | > 100 |  | > 100 |  | > 100 |  | > 100 |  | > 100 | > 100 |
| COc1cccc2c1C1(O)C2CCCC12OCCCO2 (centres undefined) |  | > 100 |  | > 100 |  | > 100 |  | > 100 |  |  | > 100 |  | > 100 |  | > 100 |  | > 100 |  | > 100 | > 100 |
| CCNc1c(C(=O)N(CC)CC)c(=O)[nH]c2ncccc12 |  | > 100 |  | > 100 |  | > 100 |  | > 100 |  |  | > 100 |  | > 100 |  | > 100 |  | > 100 |  | > 100 | > 100 |
| O=Nc1c(-c2cccc([N+](=O)[O-])c2)nc2cnccn12 |  | 59.7 |  | > 100 |  | 1.72 |  | 41 |  |  | 79.4 |  | 41.4 |  | 95.4 |  | 38.6 |  | 36.8 | > 100 |
| O=c1[nH]cnc2c1nnn2C1OC(CO)C(O)C1O (centres undefined) | 6.57 | > 100 | 19.6 | > 100 | 551 | > 28 | 12.3 | > 100 | 617 | 6.81 | > 100 | 416 | 37.6 | 3.89 | > 100 | 1270 | > 57.7 | 4.65 | 42.8 | > 43.9 |
| N#Cc1c2ccccc2c2n1-c1ccccc1OC(c1ccccc1)C2=O (centres undefined) | 3.48 | 14.9 | 4.25 | > 100 | 2660 | 10.9 | 3.82 | 17.6 | 2830 | 3.73 | 19.7 | 2430 | 8.44 | 3.32 | 10.8 | 4370 | 19.2 | 3.81 | 18 | 6.03 |
| CSc1ccc(-c2cc(-c3ccc(NC(=O)CCCN4CCCC4)cc3)nc(-c3ccc(NC(=O)CCCN4CCCC4)cc3)c2)cc1 | 3.46 | 17.1 | 4.92 | 23.8 | 1900 | 3.61 | 4.94 | 25.2 | 6540 | 2.15 | 5.01 | 2910 | 12.9 | 1.87 | 3.3 | 10300 | 33.8 | 11.9 | 32.4 | 23.5 |
| Cc1ccccc1S(=O)(=O)N1[C@H](c2ccc(Cl)cc2)C(C(=O)N[C@@H](Cc2ccccc2)C(N)=O)=C[C@@H]1C(C)(C)C | 6.08 | 13.3 | 6.07 | 17.3 | 5770 | 26.7 | 8.31 | 17.2 | 9600 | 6.56 | 16.4 | 6250 | 13.4 | 4.49 | 13.3 | 9570 | 23.1 | 5.76 | 12.8 | 31.2 |
